The record followed here is US4499081A, “Peptide compounds” (Nyegaard & Co A/S, priority 1982, dated 1985).

For one assay, the system named is granulopoiesis. Put plainly: activity as granulopoiesis inhibition factor. An excerpt: Due to the minute amounts of the natural granulopoiesis factor available, the structure of the natural substance has not been determined. It has never been obtained in crystalline or completely pure form and it is not known whether this could be achieved using material from natural sources only. In contrast, the peptides of the invention can be obtained in crystalline form suitable for pharmaceutical use and in relatively large quantities, free from contaminating peptides and proteins of natural origin.

A further assay has as its system myelopoietic system. Put plainly: injection of peptide into mice, effect on hemopoiesis. The format is in vivo.
[1] abbreviates: injected into mice at a relatively low dose level.
Setting [2] is: mice, injections at 10^-5 M for six successive days.

Square brackets hold non-standard residues; d marks the D form. Peptide text beside a SMILES is read from it. pGlu = O=C1CC[C@@H](C(=O)O)N1

With `NCCCC[C@H](NC(=O)[C@H](CS)NC(=O)[C@H](CC(=O)O)NC(=O)[C@H](CC(=O)O)NC(=O)[C@@H]1CCC(=O)N1)C(=O)O` [pyroGlu-Asp-Asp-Cys-LysOH] ([pGlu]DDCK-OH), the granulopoiesis inhibition activity entry in the assay on granulopoiesis was “inactive”.
On to `NCCCC[C@H](NC(=O)[C@H](CS)NC(=O)[C@H](CC(=O)O)NC(=O)[C@H](CCC(=O)O)NC(=O)[C@@H]1CCC(=O)N1)C(=O)O` [Compound (1), L-pyroGlutamyl-L-glutamyl-L-aspartyl-L-cysteinyl-L-lysine] ([pGlu]EDCK-OH), for which, in the assay with myelopoietic system (after treatment with the peptide, inhibitory effect reversible, normal cell population overshoots temporarily), the “production of myelopoietic cells after treatment” value is on record as “temporarily abnormally increased”. Besides, in the assay on myelopoietic system (setting [1]), the “effect on other cell lineages deriving from the pluripotent stem cells” value was “not affected”; the “effect on the myelopoietic system (morphologically recognisable cells and committed stem cells)” value is listed as “selective inhibition of the myelopoietic system”. The “effect on the whole hemopoietic system, including production of lymphocytes” value in the assay on myelopoietic system (mice, 10^-5 M for three weeks) was “strong stimulation”. Moreover, the peripheral granulocytes result in the assay on myelopoietic system (mice, concentration of 10^-7 M in the extracellular fluid, greatest in the mature cells) is reported as “marked decrease”. Moreover, in the assay with myelopoietic system (setting [2]), the “pluripotent stem cells and production of erythrocytes” value is given as “reduced”; the “population of committed stem cells” value was “strong reduction”.
